The results in this text go back to PubChem BioAssay AID2842 (Southern Research Institute, 2010).

Values after ≈ are worked out from the molar mass of the structure shown. Bounds are passed on as bounds.

This experiment concerns M. tuberculosis H37Rv growth inhibition. Description: Mycobacterium tuberculosis H37Rv growth inhibition, putative kinase inhibitor library, confirmatory dose response (AID 2842).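 Note: bacteria incubated one week before Alamar blue readout.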

As to `CCOC(=O)c1c(NC(=O)c2ccccc2Br)sc2c1CC(C)(C)NC2(C)C`, the 90% effect concentration (IC90) (commonly the point of the concentration-response curve where the effect stands at 90%) is 8.85 µg/mL (≈ 19 µM).

Take `COc1ccccc1Cn1cc2c(-c3ccc(F)cc3)nnc-2c2cc(OC)c(OC)cc21`: the IC90 was 22 µg/mL (≈ 49.7 µM).

As for `CCCCC(=O)Nc1nc(-c2ccccc2)c(C(C)=O)s1`, the IC90 is 13.7 µg/mL (≈ 45.4 µM).

Turning to `CSc1cccc(-c2nnc(NC(=O)c3cc([N+](=O)[O-])ccc3Cl)o2)c1`, the 90% effect concentration (IC90) was 0.88 µg/mL (≈ 2.25 µM).

On to `COc1cccc(C(=O)NNc2nc3c(C)cccc3s2)c1`, for which the concentration for an effect of 90% (IC90) was 11.6 µg/mL (≈ 37.1 µM).

Turning to `Cc1ccccc1C(=O)Nc1nnc(-c2ccc(Cl)cc2)o1`, the 90% effect concentration (IC90) is 0.55 µg/mL (≈ 1.75 µM).

Regarding `CCCCOc1ccc(C(=O)N2CC(=O)Nc3ccc(Cl)cc3C2c2ccc(F)cc2)cc1` (stereo not given), the IC90 was 13.1 µg/mL (≈ 28.1 µM).

Take `NNC(=O)c1ccc(-c2ccccc2Cl)o1`: the concentration for an effect of 90% (IC90) was 3.96 µg/mL (≈ 16.7 µM).

`N/C(=N\OC(=O)c1ccccc1F)c1ccccn1`: the 90% effect concentration (IC90) is 18.7 µg/mL (≈ 72.2 µM).

As for `CCCCOc1cccc(C(=O)Nc2nnc(-c3cc(C)ccc3C)o2)c1`, the concentration for an effect of 90% (IC90) is 12.4 µg/mL (≈ 33.9 µM).

Turning to `COc1ccc(-c2noc(-c3cc4ccccc4oc3=Nc3ccc(Br)cc3)n2)cc1`, the IC90 is 13.3 µg/mL (≈ 28.1 µM).

Consider `Cc1ccc(-c2nnc(NC(=O)c3ccc([N+](=O)[O-])s3)o2)c(C)c1`, for which the 90% effect concentration (IC90) was 0.61 µg/mL (≈ 1.77 µM).

Consider `Cc1ccc(C)c(-c2nnc(NC(=O)c3ccc(Br)s3)o2)c1`, for which the IC90 is 6.75 µg/mL (≈ 17.8 µM).

For `Cn1c(/C(C#N)=C/c2c[nH]c3ccccc23)nc2ccccc21`, the IC90 is 10.2 µg/mL (≈ 34.3 µM).

For the molecule `Cc1ccc(C)c(-c2nnc(NC(=O)c3ccc(Cl)s3)o2)c1`, the IC90 was 26.4 µg/mL (≈ 79.2 µM).

With `O=C(Nc1nnc(-c2ccccn2)o1)c1cccc(F)c1`, the IC90 is 3.47 µg/mL (≈ 12.2 µM).

For the molecule `COC(=O)c1c(NC(=O)c2ccccc2Cl)sc2c1CC(C)(C)NC2(C)C`, the concentration for an effect of 90% (IC90) is 44.8 µg/mL (≈ 110 µM).

With `COc1cccc(C(=O)Nc2nc3c(s2)CCc2ccccc2-3)c1`, the IC90 is 11.3 µg/mL (≈ 33.6 µM).

Regarding `Cc1cc(C)c2sc(NNC(=O)c3cc(-c4cccs4)nc4ccccc34)nc2c1`, the 90% effect concentration (IC90) was 25.6 µg/mL (≈ 59.5 µM).

In the case of `c1ccc(CN2CCN(c3nc(Nc4ccccc4)c4nccnc4n3)CC2)cc1`, the IC90 is 5.37 µg/mL (≈ 13.5 µM).

As to `Cc1c(C)n2c3c(=O)[nH]c(=O)n(C)c3nc2n1CCCNc1ccccc1Cl`, the IC90 was 25.4 µg/mL (≈ 63.4 µM).

With `O=C(Nc1nnc(-c2ccc(Cl)cc2)o1)c1ccco1`, the IC90 was 1.11 µg/mL (≈ 3.83 µM).

Consider `COc1ccc(-c2nc(C(N)=O)c3[nH]c(=O)n(-c4ccc(C(C)(C)C)cc4)c3n2)c(OC)c1`, for which the concentration for an effect of 90% (IC90) is 17.3 µg/mL (≈ 38.7 µM).

Regarding `CCN(CC)S(=O)(=O)c1ccc(C(=O)Nc2nnc(-c3cc(Cl)ccc3Cl)o2)cc1`, the IC90 was 7.57 µg/mL (≈ 16.1 µM).

In the case of `O=C(Nc1nnc(-c2cccs2)o1)C1CCCCC1`, the IC90 was 26.9 µg/mL (≈ 97.1 µM).

As to `CSc1nnc(C)c(=O)n1COC(=O)c1ccc2ccccc2c1`, the IC90 was 3.38 µg/mL (≈ 9.9 µM).

As to `CSc1ccccc1-c1nnc(NC(=O)c2cc([N+](=O)[O-])ccc2Cl)o1`, the IC90 was 2.12 µg/mL (≈ 5.42 µM).

On to `O=C(Nc1nnc(-c2cccs2)o1)c1nc2ccccc2s1`, for which the concentration for an effect of 90% (IC90) was 2.98 µg/mL (≈ 9.07 µM).

As for `COC(=O)c1ccc(NC(=O)CSc2nc(-c3ccccc3C)ns2)cc1`, the 90% effect concentration (IC90) was 0.79 µg/mL (≈ 1.98 µM).

As to `O=S(=O)(Nc1cc(Cl)c(O)c2ccccc12)c1ccc(F)cc1`, the 90% effect concentration (IC90) was 6.28 µg/mL (≈ 17.9 µM).

For the molecule `Cc1ccc2c(c1)=C(c1sc(=O)[nH]c1O)C(=O)N=2`, the IC90 was 22.8 µg/mL (≈ 87.7 µM).

Consider `Cc1ccc(-c2nnc(NC(=O)c3ccc(Cl)cc3Cl)o2)c(C)c1`, for which the IC90 is 4.12 µg/mL (≈ 11.4 µM).

Turning to `Cc1cc(C)c2sc(NNC(=O)c3ccc(S(=O)(=O)N4CCCCC4)cc3)nc2c1`, the IC90 is 29.4 µg/mL (≈ 66 µM).

As to `O=C(/C=C/c1cccs1)Nc1nnc(-c2ccc3c(c2)OCCO3)o1`, the 90% effect concentration (IC90) was 37 µg/mL (≈ 104 µM).

For the molecule `COc1cc(/C=C(\C#N)c2nc(-c3ccc4c(c3)OCO4)cs2)cc([N+](=O)[O-])c1O`, the IC90 is 37.7 µg/mL (≈ 89.2 µM).

Regarding `COc1ccccc1Cn1cc2c(-c3ccc(C)cc3)nnc-2c2cc(C)ccc21`, the 90% effect concentration (IC90) was 3.48 µg/mL (≈ 8.84 µM).

Take `CS(=O)(=O)c1ccc(CC(=O)Nc2nnc(-c3ccc4c(c3)CCCC4)o2)cc1`: the IC90 was 13.9 µg/mL (≈ 33.7 µM).

In the case of `O=C1N/C(=N\N=C\c2ccccc2O)SC1Cc1ccc(F)cc1` (stereo not given), the IC90 was less than 0.2 µg/mL.

With `O=C(Nc1nnc(-c2ccc3c(c2)CCCC3)o1)C1CCCCC1`, the IC90 was 40.2 µg/mL (≈ 124 µM).

Take `COC(=O)c1ccc(C(=O)NNc2nc3c(C)cc(C)cc3s2)cc1`: the 90% effect concentration (IC90) is 6.49 µg/mL (≈ 18.3 µM).

`O=C(Nc1nnc(-c2cc(Cl)ccc2Cl)o1)c1ccccc1Br`: the 90% effect concentration (IC90) was 1.6 µg/mL (≈ 3.87 µM).

As for `COc1cccc(Nc2cc(C)nc3c(-c4ccccc4)cnn23)c1`, the IC90 is 1.83 µg/mL (≈ 5.54 µM).

Turning to `O=c1cnnc(N/N=C/c2cc(Br)ccc2O)[nH]1`, the IC90 is less than 0.2 µg/mL.

As for `CCOC(CNc1ncnc2c1cnn2-c1ccc(C)cc1)OCC`, the concentration for an effect of 90% (IC90) was 25.6 µg/mL (≈ 74.9 µM).

In the case of `COc1ccc(C(=O)Oc2cccc(Nc3ncnc4ccccc34)c2)cc1`, the concentration for an effect of 90% (IC90) was 15.1 µg/mL (≈ 40.5 µM).

Regarding `O=C(Nc1nc(-c2nc3ccccc3s2)cs1)C1COc2ccccc2O1` (stereo not given), the IC90 was 26.8 µg/mL (≈ 67.8 µM).

Take `COC(=O)c1c(C)oc2ccc(OCC(=O)OC(C)C)cc12`: the concentration for an effect of 90% (IC90) is 7.05 µg/mL (≈ 23 µM).

As for `COc1ccccc1N1CCN(c2nc(Nc3ccc(F)cc3)c3nccnc3n2)CC1`, the 90% effect concentration (IC90) was 27.6 µg/mL (≈ 63.9 µM).

Turning to `O=C(/C=C/c1cccs1)Nc1nnc(-c2ccco2)o1`, the 90% effect concentration (IC90) is 5.99 µg/mL (≈ 20.8 µM).

As to `Cc1ccc(N2C(=O)C(Cl)=C(Nc3cc(Cl)ccc3O)C2=O)cc1`, the IC90 was 25.4 µg/mL (≈ 69.8 µM).
